Here are results for 79 molecules from PMC12040169 (PLOS Biology, 2025).

One series can be described thus: in vitro. Particulars: human, hela cells, % viability.
`CC(C)C[C@H](NC(=O)COc1ccc2nc3n(c(=O)c2c1)CCCCC3)C(=O)O` [CBK286656]: the viability at 28.5 h, 10 µM turned out to be 88.3%.
Turning to `CS(=O)(=O)Nc1cc2ccccc2c(-c2ccc(OCc3ccccc3)c(F)c2)n1` [CBK073785], the viability at 28.5 h, 10 µM was 92.7%.
Turning to `Cc1nc(NC(=O)Cc2c(C)nn(CC(C)C)c2C)sc1-c1n[nH]c(=S)n1C` [CBK296691], the viability at 28.5 h, 10 µM came out at 88.6%.
Turning to `Cc1cc(C)n(CC(O)CN(Cc2ccco2)Cc2cccs2)n1` (stereo not shown) [CBK282979], the viability at 28.5 h, 10 µM amounted to 100%.
As to `O=S(=O)(NCCN1CCOCC1)c1cc(Cl)ccc1Cl` [CBK261757], the viability at 28.5 h, 10 µM turned out to be 85.1%.
Still for that read-out and setting: for `O=c1c(-c2ccccc2)c(C(F)(F)F)oc2c(CN3CCN(Cc4ccccc4)CC3)c(O)ccc12` [CBK265808] the value was 95%; for `C[C@H](NC(=O)C1CC(=O)N(c2ccc(F)cc2)C1)C(=O)N1CCC(C(=O)O)CC1` (stereo partly shown) [CBK286733], 79.7%; for `CN1CCN(c2ccc(NC(=O)c3ccc(OCc4ccccc4)cc3)cc2)CC1` [CBK266124], 99.6%.
The same measure, in the same setting: as for `O=C1OCCN1S(=O)(=O)c1ccc(CN2CCN(Cc3ccc(S(=O)(=O)N4CCOC4=O)cc3)CC2)cc1` [CBK024729], the figure is 91.4%; as for `Cc1c(Cc2ccccc2)c(-n2ccnc2C)n2c(nc3ccccc32)c1C#N` [CBK263144], 92.4%.
As for `CCOc1ccc(C(=O)CCNCC(=O)O)cc1` [CBK286657], the viability at 28.5 h, 10 µM turned out to be 94.4%.
The same measure, in the same setting: as for `COc1ccc(OC)c(C(=O)N2CCNC(=O)C2Cc2ccccc2-c2ccc(F)cc2)c1` (stereo not shown) [CBK285829], the figure is 105%.
Still for that read-out and setting: for `CC(CN1CCOCC1)NS(=O)(=O)c1cccc(C(=O)N2CCCC2)c1` (stereo not shown) [CBK307053] the value was 107%; for `CNc1ccc(C(O)(C(F)(F)F)C(F)(F)F)cc1C(O)(C(F)(F)F)C(F)(F)F` [CBK268070], 96.6%; for `COc1ccc(C(=O)N(C)C2CCN(C)C2)cc1Nc1cncc(-c2cc3ccccc3[nH]2)n1` (stereo not shown) [CBK155260T], 108%.
Regarding `COc1ccc(Br)cc1/C=N/NC(=O)CC1C(=O)NN=C1C` (stereo not shown) [CBK263359], the viability at 28.5 h, 10 µM was 99.2%.
Take `CCN1CC(C(=O)N2CCCCC2CN(C)C)CC1=O` (stereo not shown) [CBK282056]: the viability at 28.5 h, 10 µM was 108%.
For the molecule `CCOC(=O)c1c(NC(=O)CCC(=O)O)sc2c1CCCCC2` [CBK262648], the viability at 28.5 h, 10 µM was 100%.
For `Cc1ccc(C(=O)O)cc1S(=O)(=O)N1CCC(C(=O)O)CC1` [CBK267327], the viability at 28.5 h, 10 µM came out at 107%.
On to `Cc1c(C(c2ccc3ccccc3c2)c2c(C)n(C)n(-c3ccccc3)c2=O)c(=O)n(-c2ccccc2)n1C` [CBK261692], for which the viability at 28.5 h, 10 µM amounted to 95.9%.
In the case of `Cn1cc(Cl)c(C2CCCCCN2C(=O)c2cc(C3CC3)on2)n1` (stereo not shown) [CBK285120], the viability at 28.5 h, 10 µM was determined as 109%.
Turning to `CCN(CC)C(=O)c1ccc(-c2ccc(NC(C)=O)cc2)nc1` [CBK158850], the viability at 28.5 h, 10 µM amounted to 101%.
For the molecule `O=C(Nc1ccc2oc(-c3cccnc3)nc2c1)c1ccc(-c2ccccc2)cc1` [CBK264035], the viability at 28.5 h, 10 µM worked out at 88.3%.
Same read-out and setting: for `CSc1nc(O)c(C(c2ccc(C)cc2)c2c(O)nc(SC)nc2O)c(O)n1` [CBK265313] the value was 90.3%; for `CC(C)n1c(NCc2nc3ccccc3n2C)nc2ccccc21` [CBK265571], 83.6%; for `COc1ccccc1N1CCN(CC(=O)Nc2cc(Cl)ccc2C)CC1` [CBK270087], 105%.
As for `Cc1nc(C(Cc2ccsc2)NC(=O)c2cnn(C)c2)sc1C` (stereo not shown) [CBK284779], the viability at 28.5 h, 10 µM turned out to be 104%.
In the case of `COC(=O)c1c(NC(=O)CCCC(=O)O)sc2c1CCCCC2` [CBK265393], the viability at 28.5 h, 10 µM turned out to be 85.4%.
Regarding `Cn1ccnc1[S+]([O-])Cc1nc2ccccc2s1` (stereo not shown) [CBK005549], the viability at 28.5 h, 10 µM is 91.5%.
With `Cn1nc(CN(Cc2ccccc2C(F)(F)F)C2CC2)[nH]c1=O` [CBK306391], the viability at 28.5 h, 10 µM is 98.2%.
Still for that read-out and setting: as for `CC(C)c1nnc(SCc2ccc(CSc3nnc(C(C)C)n3N)cc2)n1N` [CBK267911], the figure is 101%; as for `Cn1cnc(S(=O)(=O)N2CCC(C(=O)NC(c3ccccn3)c3cccs3)CC2)c1` (stereo not shown) [CBK060131], 105%.
For `COc1ccc([C@H](NC(=O)C2CCN(C(=O)OCc3ccccc3)CC2)c2ccccc2C)cn1` [CBK084639], the viability at 28.5 h, 10 µM is 92.9%.
On the same count and under the same terms, as for `Fc1ccc(-n2cnnn2)cc1` [CBK027592], the figure is 110%; as for `COC(=O)c1ccc2c(=O)n(CC3CCCO3)c(SCCO)nc2c1` (stereo not shown) [CBK306041], 109%; as for `CN1CCc2nc(SCC(=O)c3ccc(-c4ccccc4)cc3)c(C#N)c(-c3cccs3)c2C1` [CBK267447], 88.3%.
Regarding `Cc1nn(Cc2ccc(Cl)cc2)c(C)c1C(N)C(=O)O` (stereo not shown) [CBK286661], the viability at 28.5 h, 10 µM turned out to be 89.7%.
Take `CCN(CC)C(=O)c1cn(CCC#N)nc1-c1cccc(OC)c1` [CBK305941]: the viability at 28.5 h, 10 µM was found to be 92.6%.
The same measure, in the same setting: for `Cc1cc(C)cc(OCc2nnc(SCC(=O)Nc3c(F)cc(F)cc3Br)n2C)c1` [CBK268604] the value was 83.6%.
In the case of `O=C(OCCN1CCOCC1)N1CCN(c2ccccc2)CC1` [CBK200242], the viability at 28.5 h, 10 µM came out at 90.3%.
The same measure, in the same setting: for `Cc1cccc(C2N3CCC4(CC3)c3[nH]c5ccccc5c3CCN24)n1` (stereo not shown) [CBK284435] the value was 90.5%.
For the molecule `COc1ccc(Nc2nc(-c3cccc(N)c3)cnc2N)cc1` [CBK063585], the viability at 28.5 h, 10 µM turned out to be 95.9%.
Same read-out and setting: as for `CCc1cc(CNS(=O)(=O)c2cc(C)ccc2F)on1` [CBK283064], the figure is 108%; as for `CS(=O)(=O)N1C[C@@H]2CCCCN(Cc3cccc(F)c3)[C@@H]2C1` [CBK285514], 103%.
Take `COc1ccc(C(NC(=O)NNC(=O)Cc2ccc(Cl)cc2)c2ccccc2C)cn1` (stereo not shown) [CBK083660]: the viability at 28.5 h, 10 µM came to 96.1%.
The same measure, in the same setting: as for `COc1ccc(CSc2nc(O)cc(C(F)(F)F)n2)cc1` [CBK001217], the figure is 85%; as for `CCC1CCCCN1C(=O)c1cc2ccccc2o1` (stereo not shown) [CBK078549], 80.1%; as for `Cn1ccnc1C1(O)CC2CCC(C1)N2C(=O)c1ccc(Cl)cc1` (stereo not shown) [CBK284087], 94.2%.
For `FC(F)(F)c1ccnc(OCCCc2ccncc2)n1` [CBK115799], the viability at 28.5 h, 10 µM amounted to 97.5%.
On to `Cc1cc(-c2cn(C)nc2C2CCCCN2C(=O)C2CCCC2)on1` (stereo not shown) [CBK283404], for which the viability at 28.5 h, 10 µM was 96.9%.
Regarding `N#C/C(=N/Nc1ccc(Br)cc1)C1=NC(=O)CS1` [CBK018747], the viability at 28.5 h, 10 µM turned out to be 96%.
As for `O=C(OCc1nc2ccccc2[nH]1)N1CCOCC1` [CBK200146], the viability at 28.5 h, 10 µM was 109%.
For `CC1CN(C(=S)Nc2ccc(NC(=S)N3CC(C)OC(C)C3)cc2)CC(C)O1` (stereo not shown) [CBK004991], the viability at 28.5 h, 10 µM came out at 78.9%.
On the same count and under the same terms, as for `CN(C(=O)CN1CCN(c2cc(-c3ccsc3)ncn2)CC1)c1ccccc1` [CBK091129], the figure is 99.7%; as for `O=C(O)CCNc1ccc(Br)cc1C(=O)O` [CBK087259], 96.9%; as for `Cc1nc(C)c(CCC(=O)N2CCCCC2Cn2cccn2)c(=O)[nH]1` (stereo not shown) [CBK305310], 102%.
Consider `O=C(CSc1nnc(-c2cccs2)n1-c1ccccc1)Nc1ccnc2ccccc12` [CBK267487], for which the viability at 28.5 h, 10 µM came out at 94.4%.
Take `NC(=O)CN1CCC(Oc2cncc(OCCN3CCOCC3)n2)C1` (stereo not shown) [CBK084488]: the viability at 28.5 h, 10 µM worked out at 111%.
Take `CCOC(=O)c1cnc2c(C)c(Cl)ccc2c1NCCN(C)C` [CBK265965]: the viability at 28.5 h, 10 µM stood at 102%.
With `Nn1c(SCc2ccc(C(=O)O)cc2)nnc1-c1ccccn1` [CBK267553], the viability at 28.5 h, 10 µM came to 90.8%.
On the same count and under the same terms, for `CCN(CC)C(=O)c1cccc(NS(=O)(=O)c2ccc(C)c(C(=O)O)c2)c1` [CBK296665] the value was 111%; for `O=C(O)CCN1C(=O)c2ccc(Oc3ccc(NC(=O)c4ccc(Cl)c(Cl)c4)cc3)cc2C1=O` [CBK267400], 90.6%.
As to `COc1cccc(COc2cncc(N3CCNCC3)n2)c1OC` [CBK200003], the viability at 28.5 h, 10 µM was determined as 98.6%.
Same read-out and setting: for `CCC(=O)c1c(CC)n[nH]c1-c1c(Cl)cccc1Cl` [CBK107819] the value was 96.1%.
`COc1ccccc1OCCNC1CCc2cc(Cl)ccc2C1` (stereo not shown) [CBK013067C]: the viability at 28.5 h, 10 µM turned out to be 93.2%.
As for `CCOc1ccc(C(=O)N2CC(C(N)=O)CCC2C)cn1` (stereo not shown) [CBK305770], the viability at 28.5 h, 10 µM was 102%.
As for `CC(C)(C)c1ccc(OCc2nnc(S)n2N)cc1` [CBK268421], the viability at 28.5 h, 10 µM came to 89.1%.
Still for that read-out and setting: as for `NC[C@H]1CC[C@H](C(=O)NCC2CCCN(Cc3ccccc3)C2)CC1` (stereo partly shown) [CBK282764], the figure is 89.6%.
For the molecule `CC(NC(=O)c1ccccc1Cn1cccn1)c1ccccn1` (stereo not shown) [CBK281374], the viability at 28.5 h, 10 µM worked out at 86.3%.
The same measure, in the same setting: as for `Cc1cccc2cc(CN(Cc3cccnc3)C(=O)Nc3ccccc3Cl)c(=O)[nH]c12` [CBK108869], the figure is 97.9%; as for `CCOC(=O)N1CCC(NC(=O)N(C)C2CCN(C)C2)CC1` (stereo not shown) [CBK156027], 102%; as for `O=C(CC1SCCNC1=O)NCc1ccccc1` (stereo not shown) [CBK270202], 99.1%.
As for `O=C(CCc1ccc(F)cc1)N1CCCC(c2cccc(Cc3ccccc3F)n2)C1` (stereo not shown) [CBK286512], the viability at 28.5 h, 10 µM worked out at 91.2%.
Regarding `CCN(CCN1CCOCC1)C(=O)c1[nH]c2c(F)cccc2c1C` [CBK306772], the viability at 28.5 h, 10 µM is 90.3%.
With `O=C(CSc1nc(-c2cccs2)cc(C(F)(F)F)n1)N1CCSCC1` [CBK307371], the viability at 28.5 h, 10 µM stood at 107%.
Still for that read-out and setting: as for `CC1CN(Cc2c(C(C)C)[nH]c3ncccc23)CC(C)O1` (stereo not shown) [CBK282900], the figure is 93.7%.
For `CC(=O)N1CCN(CCNc2ncnc3sc4c(c23)CCC(C)C4)CC1` (stereo not shown) [CBK304897], the viability at 28.5 h, 10 µM stood at 93%.

Still in this series, the particulars now being: human, hela cells, % viability, bulk resorufin, single well.
Consider `N#CC1(c2ccccc2)CCN(C(=O)c2ccc([N+](=O)[O-])o2)CC1` [CBK091389], for which the viability at 28.5 h, 10 µM amounted to 95.7%.
As for `O=C(Cn1cc(/C=C2/C(=O)NC(=S)N(c3ccc(Cl)cc3)C2=O)c2ccccc21)Nc1ccccc1` [CBK263535], the viability at 28.5 h, 10 µM was determined as 98.4%.

In general, viability refers to a read-out of living cells in per cent, often relative to untreated cells.
